Legend:
Assay type in all cases: functional, cell-based
A549 = assay: Compound was tested for inhibition of cell growth of A-549 cells; conditions: Homo sapiens
HT-29 = assay: Compound was tested for inhibition of cell growth of HT-29 cells; conditions: Homo sapiens
[1] = Compound was tested for inhibition of cell growth of MEL-28 cells; conditions: Homo sapiens, SK-MEL-28
P388 = assay: Compound was tested for inhibition of cell growth of P-388 cells; conditions: Mus musculus
L1210 = assay: Compound was tested for inhibition of cell growth of L1210 leukemia cells; conditions: Mus musculus

SMILES | IC50 (A549) | IC50 (HT-29) | IC50 (P388) | IC50 (L1210) | IC50 [1]
COc1ccc(CCc2cc(OC)c(OC)c(OC)c2)cc1OC | 15 µM | 15 µM | 15 µM |  | 15 µM
Oc1ccc(CCc2ccc3c(c2)OCO3)cc1 | > 41.2 µM | > 41.2 µM | 41.2 µM |  | > 41.2 µM
c1ccc2cc(C3SCCCS3)ccc2c1 |  |  |  | 20 µM | 
COc1cc(C(=O)Cc2cc(OC)c(OC)c(OC)c2)ccc1O | > 30 µM | > 30 µM | 30 µM |  | > 30 µM
COc1ccc(C(O)Cc2cc(OC)c(OC)c(OC)c2)cc1OC (centres undefined) | > 28.7 µM | > 28.7 µM | 28.7 µM |  | > 28.7 µM
COc1cc([C@@H]2c3cc4c(cc3[C@H](O)[C@H]3COC(=O)[C@H]23)OCO4)cc(OC)c1OC [PODOFILOX] | 0.05 µM | 0.05 µM | 0.05 µM |  | 0.06 µM

Now from value to compound, other results behind:

IC50 (A549) | IC50 (HT-29) | IC50 (P388) | IC50 (L1210) | SMILES | IC50 [1]
> 28.9 µM | > 28.9 µM | > 28.9 µM |  | COc1ccc(C(=O)Cc2cc(OC)c(OC)c(OC)c2)cc1OC | > 28.9 µM
6.3 µM | 6.3 µM | 6.3 µM |  | COc1cc(CCc2ccc3c(c2)OCO3)cc(OC)c1OC | 6.3 µM
5.9 µM | 5.9 µM | 5.9 µM |  | COc1cc(CC2(c3ccc4c(c3)OCO4)SCCCS2)cc(OC)c1OC | 4.7 µM
5.8 µM | 5.8 µM | 5.8 µM |  | COc1cc(CC2(c3ccc4ccccc4c3)SCCCS2)cc(OC)c1OC | 11.7 µM
14.8 µM | 29.7 µM | 14.8 µM |  | COc1cc(CC(=O)c2ccc3ccccc3c2)cc(OC)c1OC | 14.8 µM
22.9 µM | 22.9 µM | 22.9 µM |  | COc1ccc(C2(Cc3cc(OC)c(OC)c(OC)c3)SCCCS2)cc1OC | > 22.9 µM
0.3 µM | 0.3 µM | 0.3 µM |  | COc1cc(CCc2ccc3ccccc3c2)cc(OC)c1OC | 0.3 µM

— ChEMBL document CHEMBL1128115, “Synthesis and pharmacological activity of combretastatin analogues. Naphthylcombretastatins and related compounds” (Bioorg Med Chem Lett, 1995)
